{"source": "ChEMBL document CHEMBL4376865", "about": "“Discovery and Characterization of 1H-1,2,3-Triazole Derivatives as Novel Prostanoid EP4 Receptor Antagonists for Cancer Immunotherapy” (J Med Chem, 2020)", "key": {"[1]": {"assay": "Clearance in BALB/c mouse at 1 mg/kg, iv measured upto 24 hrs by LC-MS/MS analysis", "conditions": "in vivo"}, "[2]": {"assay": "in vivo", "conditions": "BALB/c, mouse, iv, 1 mg/kg"}, "[3]": {"assay": "in vivo", "conditions": "BALB/c, mouse, po, 5 mg/kg", "description": "AUC (0 to infinity) in BALB/c mouse at 5 mg/kg, po measured upto 24 hrs by LC-MS/MS analysis"}, "[4]": {"assay": "in vivo", "conditions": "BALB/c, mouse, iv, 1 mg/kg", "remark": "listed apart in the source"}, "[5]": {"assay": "Metabolic stability in CD1 mouse liver microsomes assessed as compound remaining at 10 uM incubated for 1 hr"}, "[6]": {"assay": "in vitro", "conditions": "human, liver microsomes"}, "[7]": {"assay": "in vitro", "conditions": "CD1, mouse, liver microsomes"}, "[8]": {"test_system": "CT26", "assay": "Antitumor activity against mouse CT26 cells xenografted in BALB/c mouse assessed as tumor growth inhibition at 150 mg/kg, po administerd daily and measured after two weeks", "conditions": "336 h, read-out: TGI"}, "[9]": {"assay": "Volume of distribution at steady state in BALB/c mouse at 1 mg/kg, iv measured upto 24 hrs by LC-MS/MS analysis", "conditions": "in vivo"}, "[10]": {"test_system": "CT26", "assay": "Antitumor activity against mouse CT26 cells xenografted in BALB/c mouse assessed as tumor growth inhibition at 16 mg/kg, po administerd daily and measured after two weeks", "conditions": "336 h, read-out: TGI"}, "[11]": {"target": "Prostaglandin E2 receptor EP2 subtype (Homo sapiens, UniProt P43116)", "sequence (P43116 whole entry)": "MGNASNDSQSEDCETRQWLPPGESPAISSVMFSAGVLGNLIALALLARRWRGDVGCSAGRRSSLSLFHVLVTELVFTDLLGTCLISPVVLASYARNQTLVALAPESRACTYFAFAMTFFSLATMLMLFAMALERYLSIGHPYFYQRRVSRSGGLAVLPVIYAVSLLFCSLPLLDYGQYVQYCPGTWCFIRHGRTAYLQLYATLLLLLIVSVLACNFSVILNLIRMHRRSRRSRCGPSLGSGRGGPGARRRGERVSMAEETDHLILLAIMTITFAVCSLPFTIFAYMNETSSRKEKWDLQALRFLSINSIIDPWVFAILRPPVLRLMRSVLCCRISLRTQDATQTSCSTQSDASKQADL", "description": "Antagonist activity at human EP2 expressed in CHO cells coexpressing G16-alpha assessed as intracellular calcium flux preincubated for 15 mins followed by addition of PGE2 by calcium flux assay"}, "[12]": {"assay": "in vivo", "conditions": "BALB/c, mouse, po, 5 mg/kg", "remark": "listed apart in the source", "description": "Cmax in BALB/c mouse at 5 mg/kg, po measured upto 24 hrs by LC-MS/MS analysis"}, "[13]": {"target": "T1, Prostaglandin E2 receptor EP3 subtype (Homo sapiens, UniProt P43115)", "T1 sequence (P43115 whole entry)": "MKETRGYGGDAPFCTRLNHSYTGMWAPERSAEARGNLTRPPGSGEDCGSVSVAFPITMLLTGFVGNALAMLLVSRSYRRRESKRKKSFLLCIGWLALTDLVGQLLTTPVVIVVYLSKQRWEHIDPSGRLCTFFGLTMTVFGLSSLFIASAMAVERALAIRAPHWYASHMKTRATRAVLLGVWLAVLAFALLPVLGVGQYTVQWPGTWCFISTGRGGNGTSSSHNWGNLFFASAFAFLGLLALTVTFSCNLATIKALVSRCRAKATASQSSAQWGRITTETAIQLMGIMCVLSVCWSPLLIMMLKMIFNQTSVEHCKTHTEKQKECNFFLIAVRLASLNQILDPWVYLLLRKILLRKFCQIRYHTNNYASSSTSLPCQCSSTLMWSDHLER", "description": "Antagonist activity at human EP3 expressed in CHO cells coexpressing G16-alpha assessed as intracellular calcium flux preincubated for 15 mins followed by addition of PGE2 by calcium flux assay"}, "[14]": {"target": "CYP2C9 (Homo sapiens, UniProt P11712)", "sequence (P11712 whole entry)": "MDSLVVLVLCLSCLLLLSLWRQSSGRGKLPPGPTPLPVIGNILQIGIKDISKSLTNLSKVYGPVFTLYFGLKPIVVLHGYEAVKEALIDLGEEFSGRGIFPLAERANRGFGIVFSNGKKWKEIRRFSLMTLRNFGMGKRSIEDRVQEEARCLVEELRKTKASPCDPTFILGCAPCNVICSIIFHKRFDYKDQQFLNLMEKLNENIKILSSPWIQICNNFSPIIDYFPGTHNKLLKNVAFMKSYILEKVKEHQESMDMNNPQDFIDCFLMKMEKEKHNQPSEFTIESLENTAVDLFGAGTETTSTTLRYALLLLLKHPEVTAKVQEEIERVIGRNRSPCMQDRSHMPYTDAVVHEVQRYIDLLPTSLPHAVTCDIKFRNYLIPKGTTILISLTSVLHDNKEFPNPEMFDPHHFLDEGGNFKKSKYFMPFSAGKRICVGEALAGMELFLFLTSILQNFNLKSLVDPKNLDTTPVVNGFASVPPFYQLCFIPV", "assay": "Inhibition of CYP2C9 in human liver microsomes at 20 uM using tolbutamide as substrate incubated for 60 mins by HPLC analysis relative to control", "format": "ADME", "conditions": "probe tolbutamide"}, "[15]": {"target": "T2, Prostaglandin E2 receptor EP4 subtype (Homo sapiens, UniProt P35408)", "T2 sequence (P35408 whole entry)": "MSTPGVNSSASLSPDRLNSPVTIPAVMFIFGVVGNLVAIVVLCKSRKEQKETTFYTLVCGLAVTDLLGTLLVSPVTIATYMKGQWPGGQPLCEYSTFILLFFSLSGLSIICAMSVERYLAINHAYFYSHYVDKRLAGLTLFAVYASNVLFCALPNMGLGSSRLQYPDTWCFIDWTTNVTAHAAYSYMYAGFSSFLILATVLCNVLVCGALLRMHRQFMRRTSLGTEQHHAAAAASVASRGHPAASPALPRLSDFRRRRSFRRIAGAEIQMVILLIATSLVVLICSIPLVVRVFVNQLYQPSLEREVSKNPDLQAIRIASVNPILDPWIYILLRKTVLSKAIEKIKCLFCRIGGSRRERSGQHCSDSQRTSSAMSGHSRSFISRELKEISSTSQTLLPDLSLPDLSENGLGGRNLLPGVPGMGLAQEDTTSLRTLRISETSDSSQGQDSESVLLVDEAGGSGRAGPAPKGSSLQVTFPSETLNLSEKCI", "description": "Antagonist activity at human EP4 expressed in CHO cells coexpressing G16-alpha assessed as intracellular calcium flux preincubated for 15 mins followed by addition of PGE2 by calcium flux assay"}, "[16]": {"target": "Prostaglandin E2 receptor EP4 subtype (Mus musculus, UniProt P32240)", "sequence (P32240 whole entry)": "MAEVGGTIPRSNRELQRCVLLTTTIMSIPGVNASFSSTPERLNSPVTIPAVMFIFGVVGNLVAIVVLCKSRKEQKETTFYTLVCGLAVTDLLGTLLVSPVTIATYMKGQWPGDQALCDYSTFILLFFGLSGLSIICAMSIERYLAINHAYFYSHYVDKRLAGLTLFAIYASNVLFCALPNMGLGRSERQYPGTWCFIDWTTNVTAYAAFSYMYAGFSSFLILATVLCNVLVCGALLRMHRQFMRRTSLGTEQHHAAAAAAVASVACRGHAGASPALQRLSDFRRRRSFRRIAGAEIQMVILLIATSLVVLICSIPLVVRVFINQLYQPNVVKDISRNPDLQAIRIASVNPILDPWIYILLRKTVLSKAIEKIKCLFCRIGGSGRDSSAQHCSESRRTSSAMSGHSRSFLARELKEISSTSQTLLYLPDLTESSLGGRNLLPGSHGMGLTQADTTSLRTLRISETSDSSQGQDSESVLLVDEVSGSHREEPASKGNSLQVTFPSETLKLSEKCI", "assay": "Antagonist activity at mouse EP4 expressed in CHO cells coexpressing G16-alpha assessed as intracellular calcium flux preincubated for 15 mins followed by addition of PGE2 by calcium flux assay", "format": "functional, cell-based"}, "[17]": {"assay": "Half life in BALB/c mouse at 5 mg/kg, po measured upto 24 hrs by LC-MS/MS analysis", "conditions": "in vivo"}, "[18]": {"assay": "Apparent volume of distribution in BALB/c mouse at 1 mg/kg, iv measured upto 24 hrs by LC-MS/MS analysis", "conditions": "in vivo"}, "[19]": {"target": "T3, CYP1A2 (Homo sapiens, UniProt P05177)", "T3 sequence (P05177 whole entry)": "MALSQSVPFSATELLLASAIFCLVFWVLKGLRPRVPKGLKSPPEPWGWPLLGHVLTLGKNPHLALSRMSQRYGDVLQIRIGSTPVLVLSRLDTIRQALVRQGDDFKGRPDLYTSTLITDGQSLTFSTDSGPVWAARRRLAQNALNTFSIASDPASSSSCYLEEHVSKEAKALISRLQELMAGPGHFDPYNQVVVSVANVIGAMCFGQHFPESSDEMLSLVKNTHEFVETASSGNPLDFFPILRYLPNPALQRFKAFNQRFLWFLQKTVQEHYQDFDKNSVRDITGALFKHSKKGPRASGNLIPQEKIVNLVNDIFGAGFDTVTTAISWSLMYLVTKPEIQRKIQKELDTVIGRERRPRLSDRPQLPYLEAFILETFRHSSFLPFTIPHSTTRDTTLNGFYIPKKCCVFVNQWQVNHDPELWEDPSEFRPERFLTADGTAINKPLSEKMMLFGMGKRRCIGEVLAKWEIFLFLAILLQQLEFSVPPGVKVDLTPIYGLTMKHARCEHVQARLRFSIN", "assay": "Inhibition of CYP1A2 in human liver microsomes at 20 uM using phenacetin as substrate incubated for 30 mins by HPLC analysis relative to control", "format": "ADME", "conditions": "probe phenacetin"}, "[20]": {"assay": "Half life in BALB/c mouse at 1 mg/kg, iv measured upto 24 hrs by LC-MS/MS analysis", "conditions": "in vivo"}, "[21]": {"target": "T2, Prostaglandin E2 receptor EP4 subtype", "assay": "Inhibition of human EP4 transfected in human HEK293 cells co transfected with SmBit-beta-arrestin. assessed as reduction in PGE2 induced-beta-arrestin recruitment by NanoBiT beta-arrestin recruitment assay"}, "[22]": {"target": "T4, Prostaglandin E2 receptor EP1 subtype (Homo sapiens, UniProt P34995)", "T4 sequence (P34995 whole entry)": "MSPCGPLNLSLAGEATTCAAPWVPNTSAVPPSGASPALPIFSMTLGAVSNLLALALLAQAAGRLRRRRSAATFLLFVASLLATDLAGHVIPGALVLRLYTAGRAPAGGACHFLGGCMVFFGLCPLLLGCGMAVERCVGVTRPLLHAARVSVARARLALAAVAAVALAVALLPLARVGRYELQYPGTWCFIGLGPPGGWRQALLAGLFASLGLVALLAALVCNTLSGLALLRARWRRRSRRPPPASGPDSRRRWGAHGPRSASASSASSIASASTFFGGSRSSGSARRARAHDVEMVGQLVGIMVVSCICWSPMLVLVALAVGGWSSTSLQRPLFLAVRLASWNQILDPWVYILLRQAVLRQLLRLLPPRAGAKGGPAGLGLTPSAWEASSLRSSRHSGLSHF", "assay": "Antagonist activity at human EP1 expressed in CHO cells coexpressing G16-alpha assessed as intracellular calcium flux preincubated for 15 mins followed by addition of PGE2 by calcium flux assay", "format": "functional, cell-based"}, "[23]": {"assay": "in vitro", "conditions": "CD1, mouse, liver microsomes", "remark": "listed apart in the source"}, "[24]": {"assay": "in vitro", "conditions": "human, liver microsomes", "remark": "listed apart in the source"}, "[25]": {"test_system": "CT26", "assay": "Antitumor activity against mouse CT26 cells xenografted in BALB/c mouse assessed as tumor growth inhibition at 50 mg/kg, po administerd daily and measured after two weeks", "conditions": "336 h, read-out: TGI"}, "[26]": {"assay": "in vivo", "conditions": "BALB/c, mouse, po, 5 mg/kg", "remark": "listed apart in the source", "description": "Oral bioavailability in BALB/c mouse at 5 mg/kg measured upto 24 hrs by LC-MS/MS analysis"}}}
{"smiles": "C/C=C/c1nnn(Cc2ccc(C(F)(F)F)cc2)c1C(=O)N[C@@H](C)c1ccc(C(=O)O)cc1", "values": [{"measurement": "clearance at 24 h", "setting": "[1]", "result": 28.3, "unit": "mL/min/kg"}, {"measurement": "AUC(0-inf) at 24 h", "setting": "[2]", "result": 575, "unit": "ng·h/mL"}, {"measurement": "AUC(0-inf) at 24 h", "setting": "[3]", "result": 1240, "unit": "ng·h/mL"}, {"measurement": "Cmax at 24 h", "setting": "[4]", "result": 1200, "unit": "ng/mL"}, {"measurement": "remaining at 1 h, 10 µM", "setting": "[5]", "result": 82, "unit": "%"}, {"measurement": "half-life at 1 h, 10 µM", "setting": "[6]", "result": "> 2.42", "unit": "h"}, {"measurement": "microsomal CLint at 1 h, 10 µM", "setting": "[7]", "result": "< 9.6", "unit": "µL/min/mg"}, {"measurement": "inhibition in vivo at 150 mg/kg", "setting": "[8]", "result": 63.8, "unit": "%"}, {"measurement": "Vd at 24 h", "setting": "[9]", "result": 4.4, "unit": "L/kg"}, {"measurement": "inhibition in vivo at 16 mg/kg", "setting": "[10]", "result": 24.6, "unit": "%"}, {"measurement": "IC50", "setting": "[11]", "result": "> 10", "unit": "µM"}, {"measurement": "Cmax at 24 h", "setting": "[12]", "result": 194, "unit": "ng/mL"}, {"measurement": "IC50", "setting": "[13]", "result": "> 10", "unit": "µM"}, {"measurement": "inhibition at 1 h, 20 µM", "setting": "[14]", "result": 33, "unit": "%"}, {"measurement": "IC50", "setting": "[15]", "result": 0.0061, "unit": "µM"}, {"measurement": "IC50", "setting": "[16]", "result": 0.0162, "unit": "µM"}, {"measurement": "half-life at 24 h", "setting": "[17]", "result": 4.7, "unit": "h"}, {"measurement": "Vd at 24 h", "setting": "[18]", "result": 10.2, "unit": "L/kg"}, {"measurement": "inhibition at 0.5 h, 20 µM", "setting": "[19]", "result": 27, "unit": "%"}, {"measurement": "half-life at 24 h", "setting": "[20]", "result": 4.1, "unit": "h"}, {"measurement": "IC50", "setting": "[21]", "result": 0.0004, "unit": "µM"}, {"measurement": "IC50", "setting": "[22]", "result": "> 10", "unit": "µM"}, {"measurement": "half-life at 1 h, 10 µM", "setting": "[23]", "result": "> 2.42", "unit": "h"}, {"measurement": "microsomal CLint at 1 h, 10 µM", "setting": "[24]", "result": "< 9.6", "unit": "µL/min/mg"}, {"measurement": "inhibition in vivo at 50 mg/kg", "setting": "[25]", "result": 54.7, "unit": "%"}, {"measurement": "bioavailability at 24 h", "setting": "[26]", "result": 48, "unit": "%"}]}
